Experiments:
[1] = tested on: Treg expansion; assay: Treg expansion in co-culture with compound-treated BMDMs (macrophages); assay type: cell-based, mouse; set-up: key to Treg expansion macrophages: ✓: using strict cutoffs with respect to DSHN for passing each metric; X: using strict cutoffs with respect to DSHN for passing each metric; conditions: for Treg expansion after BMDM pretreatment and washout: BMDMs pretreated, washed before co-culture with T cells; for Treg expansion, co-culture with treated BMDMs: dose response
Method: Preparation of Bone Marrow-Derived Macrophages (BMDMs) and Dendritic Cells. Bone marrow cells were collected from mouse tibia and femur. Cells were passed through 70-micron cell strainer and subsequently cultured 10 mL complete RPMI media supplemented with 20 ng/mL of recombinant murine M-CSF (576406; BioLegend, 315-02 PeproTech). On day 3, additional 5 ml of the complete media was added. On day 7, media was replaced. BMDMs were harvested on day 10 using cell stripper solution for further experiments. Dendritic cells were isolated from the spleens of wildtype, using mouse CD11c UltraPure MicroBeads (130-125-835; Miltenyi Biotec) according to the manufacturer's instructions) and cultured in RPMI medium supplemented with 10% heat-inactivated charcoal-stripped FBS, 50 μM β-mercaptoethanol, 1% sodium pyruvate, 1% nonessential amino acids, % penicillin/streptomycin, and 1% Glutamax.
In vitro Treg expansion assays. T cells were cultured in RPMI medium supplemented with 10% heat-inactivated charcoal-stripped FBS, 50 μM β-mercaptoethanol (Gibco), 1% sodium pyruvate, 1% nonessential amino acids, % penicillin/streptomycin, and 1% Glutamax (Gibco). Naïve CD4^+ T cells were isolated from the spleens of wildtype and OT-II, using Naive CD4^+ T Cell Isolation Kit (Miltenyi Biotec according to the manufacturer's instructions). T cells were labeled with the vital dye CFSE (BioLegend) or Cell Trace Violet (ThermoFisher) according to the manufacturer's instructions. For wildtype Treg expansion in presence of antigen presenting cells, naïve CD4^+ T cells were co-cultured with APC at indicated ratio in the presence of 0.5 μg/mL (anti-CD3 BioLegend), 0.5 ng/mL TGFβ (BioLegend) and 0.5 ng/ml IL-2 (BioLegend) for 72 hr at 37° C. For OT-II Treg expansion, OTII naïve CD4^+ T cells from OT-II mice were activated by antigen presentation by culturing BMDMs were primed with 10 μg/mL OVA323-339 (Bachem) and 0.5 μg/mL LPS (Sigma). naïve CD4+ T cells from OTII mice were co-cultured with primed APC at indicated ratio for 72 hrs. After 72 hrs of culture, cells were transferred into V-bottom plates (BD), pelleted by centrifugation and incubated with antibody staining mix containing Ghost Dye™ Red 780 viability dye diluted in PBS for 15 minutes at 4° C. Cell surface antigens were stained for 15 minutes at 4° C. with an antibody staining mix containing Ghost Dye™ Red 780 viability dye diluted in PBS. Cells were fixed and permeabilized with BD Cytofix/Cytoperm™ for 20 minutes at 4° C. Antibodies against intracellular antigens were diluted in 1×BD Perm/Wash™ buffer and cells were stained for 30 minutes at 4° C. Cytometry data were acquired on a LSRII, Fortessa, Symphony A1 (Becton Dickinson, NJ). Foxp3 induction was assessed by expression of FOXP3.

[2] = tested on: BMDM viability; assay: Resazurin cell viability assay in BMDMs; assay type: cell-based, mouse; conditions: increasing doses up to 100 μM
Method: In order to better assess the potential cellular toxicity of DSHN-OMe, we treated BMDMs with increasing doses and measured their ability to reduce resazurin to resorufin (similar to the MTT viability assay).
Resazurin cell viability assay. 20,000 cells were seeded into 96 well f-bottom, black plates (Corning Costar) and cell viability was measured using 100 μL resazurin per well at 0.3 mg/mL (Acros Organics). The fluorescence signal was quantified by plate reader (560 nm excitation/590 nm emission) at 2-3 h.

[3] = tested on: RAW 264.7 cells; assay: Compound uptake assay (LC-MS/MS); assay type: in vitro ADME; conditions: for Intracellular compound concentration, 4 h / Intracellular compound concentration, 8 h / Intracellular compound concentration, 24 h: 50 μM
Method: Conversion of a carboxylic acid to an ester is often associated with better cellular uptake. Therefore, we explored whether the kinetics of uptake differed between the two compounds, using RAW 264.7 cells as a model for myeloid immune cells. RAW 264.7 cells were treated with 50 μM of DSHN or DSHN-OME for 4, 8 or 24 h. At the appropriate time-point cells were washed and subjected to LC-MS/MS to quantify intracellular compound concentration. […] At 8 h, 12.6 nM DSHN was detected.
Compound Uptake Assay. Cellular uptake of DSHN and DSHN-OMe was determined in RAW 264.7 cells cultured in 60×15 mm tissue culture dishes. Cells were treated with vehicle (0.1% DMSO), 50 μM DSHN or 50 μM DSHN-OMe for 4 h, 8 h, or 24 h. After incubation, cells were harvested, washed with PBS and cell pellets were incubated at −80° C. freezer. Next, cell pellets were resuspended in 200 μL 70:30 MeOH:H2O and sonicated to lyse cells. Debris from lysed cell suspension was removed by centrifugation. Resulting supernatant was analyzed by LC-MS/MS.

[4] = tested on: inflammasome associated genes; assay: Inflammasome associated gene expression in BMDMs (LPS, nigericin); assay type: cell-based, mouse
Method: FIG. 8A-8D. DSHN-OMe attenuates induction of inflammasome associated genes when BMDMs are treated with both LPS and nigericin, not LPS alone. * indicates P<0.05 when comparing to DMSO.
Inflammasome activation, RNA extraction, quantitative real PCR. When comparing inflammasome responses, BMDMs were treated with 500 ng/mL LPS for 4 h 37° C. in complete RPMI 1640. After 4 hr priming, 15 μM Nigericin was added for 45 mins at 37° C. Next, media was removed, washed with PBS and inflammasome activation was assessed using qPCR or inflammasome caspase-1 activity was measured using Caspase-Glo® 1 inflammasome assay kit (G9951; Promega) according to manufacturer's instructions.

[5] = tested on: Treg abundance; assay: In vivo model of immune tolerance to a chronic antigen

Compound | Treg expansion after BMDM pretreatment and washout [1] | Treg expansion, co-culture with treated BMDMs [1] | BMDM viability (resazurin reduction) [2] | Intracellular compound concentration, 4 h [3] | Intracellular compound concentration, 8 h [3] | Intracellular compound concentration, 24 h [3] | Expression of inflammasome associated genes, priming and activation signal [4] | Treg abundance in vivo [5] | Treg expansion macrophages ([1]; pass/fail with respect to DSHN) | Difference in intracellular concentration, DSHN-OMe versus DSHN [3] [log]
CCN(CC)S(=O)(=O)c1cccc2cc(C(=O)O)c(O)cc12 [DSHN, reference compound] | not effective at reducing Treg expansion | reduced subsequent Treg expansion in a dose related manner | no significant difference was observed in viability up to 100 μM | below detection limits | 12.6 nM | no intracellular DSHN was detected | able to blunt the expression of inflammasome associated genes | reduce Treg abundance |  | 
CCN(CC)S(=O)(=O)c1cccc2cc(C(=O)OC)c(O)cc12 [DSHN-OMe, Methyl 5-(N,N-diethylsulfamoyl)-3-hydroxy-2-naphthoate] | decreased Treg expansion | elicited a reduction in Treg expansion with a lower dose, and had a larger biological maximum | no significant difference was observed in viability up to 100 μM | 7,481 nM | 19,279 nM | 11,089 nM | able to blunt the expression of inflammasome associated genes |  | ✓ | > 2
